# Laboratory results: patent US20220386582A1, “METHOD AND DEVICE TO TRAP ACARIDS” (DOMOBIOS, priority 2015, published 2022)
# Tests used:
# Assay type in all cases: in vivo
# Tyrophagus putrescentiae = experiment: Toxicity, direct contact
# Protocol: (§1) FIGS. 11A-11D are sets of graphs showing the percentage of dead mites after direct contact with different doses of lavandulol (at a dilution of 10^−6, 0.184 of pure solution or 0.5 μL of pure solution) or water (Ctrl) for different time of exposure. Four species of mites were tested: Dermatophagoides pteronyssinus (FIG. 11A), Dermatophagoides farinae (FIG. 11B), Tyrophagus putrescentiae (FIG. 11C) and Acarus siro (FIG. 11D).
# (§2) The species studied were two species of dust common in mattresses in Eurasia (Dermatophagoides pteronyssinus and Dermatophagoides farinae), and two species of stored food mites common in Eurasia (Tyrophagus putrescentiae and Acarus siro). These four species were reared under defined conditions (20° C. and 75% relative humidity). The house dust mites were fed with human flakes (skin and whiskers obtained by cleaning electric shavers) and stored food mites were fed with fish food. The experiments were performed at 20° C. and 40% relative humidity.
# (§3) For this experiment, for each of the four species, a group of mites (10<n<25) was placed in a Petri dish in direct contact with the substance to test. To directly contact mites with the substance, a piece of paper filter (5×1 cm) impregnated with lavandulol at various concentration (10 μL of a 10^−6 dilution, 0.18 μL of pure solution and 0.5 μL of pure solution, corresponding respectively to 8.8 ng, 0.15 mg or 0.417 mg of lavandulol), or with a neutral solution, was placed in the Petri dish. The dish was then closed with Parafilm●.
# (§4) After a determined time (15 min, 1 hour or 24 hours), the number of dead mites were counted as previously described.
# Acarus siro = experiment: Toxicity, direct contact
# Protocol: as §1, §2, §3, §4
# Dermatophagoides farinae [1] = experiment: Toxicity, direct contact
# Protocol: as §1, §2, §3, §4
# [2] = test system: Dermatophagoides pteronyssinus; experiment: Toxicity, direct contact
# Protocol: as §1, §2, §3, §4
# Dermatophagoides farinae [3] = experiment: Mini-mattress trap: attraction capabilities of attracting solutions sprayed on felt
# Protocol: (§5) Rearing: The species studied were Dermatophagoides pteronyssinus and Dermatophagoides farinae, house dust mite common in mattresses in Eurasia. Mites are reared in Petri dishes and fed with human skin flakes (skin and whiskers obtained by cleaning electric […]). All mites were reared together under defined conditions (20° C. and 75% relative humidity). The experiments took place in a room kept at 20° C. and 40% relative humidity. Aim of the experiments: The aim was to test the trap in condition similar to the conditions that will be met by the user of the trap. Materials and methods: The mattresses were built at a smaller scale (15× reduction) than usual mattresses. These mini-mattresses are made in polyurethane and covered by a cover in cotton. They were infested with mites since at least 3 months. The fabric was a felt of 20 mg/cm^2 and is a rectangle of 10 cm×20 cm. It was placed on the mini-mattress. Then the attracting solution was sprayed on the fabric with a spray bottle. The fabric was left in place on the mattress during one hour. During this time, the mites moved in the felt. It is very difficult to count directly the mites hidden in the mattress and in the fabric. Therefore, we used a Berlèse funnel which is a device that is usually used to separate insects from litter. Here, it was used to separate the mites from their mattress or from the fabric. The Berlèse funnel uses a light bulb to heat and dry the mattress, thus driving the mites downwards through a screen and into a collecting jar containing some food and some water. […] They are attracted by a source of moisture and the smell of food. The mattress or blanket were therefore placed in the funnel (FIG. 2). The mites went downwards in the direction of the jar, then in the jar. The harvest of the jar containing the mites took place after one day. Mites had then 24 hours to migrate to the jar collector. As a substantial proportion of the population is immobile (moulting mites), trapping is less efficient than it would be otherwise and estimate of population size that is trapped are likely to be biased. To avoid this bias and make a proper assessment of the populations in infested mattresses, mattresses were carefully brushed with a soft brush at the end of the manipulation meaning that immobile mites and eggs also fall into the funnel. Fabric was carefully brushed too. The Berlèze funnel was rinsed with ethanol. Thus, mites still on the inner wall of the funnel were driven by ethanol in the jar collector. At the end of the experiment, the jar contained: the food used as attracting to mites, a small amount of water also used for attracting, mites, and ethanol. The jar was emptied into a Petri dish and we counted mites under binocular. Counting of mites was made under binocular microscope (magnification 10×). The set-up is illuminated with a cold lamp (KL 1500 LCD, Schott ●). The felt was sprayed with different attracting compositions: a solution of lavandulol, a solution of Tween 60, a combination of lavandulol and Tween 60, a solution of citral, and the attracting solution commercialized under the brand name Acar'up were compared at various dilutions.
# [4] = test system: Dermatophagoides pteronyssinus; experiment: as above
# Protocol: as §5
# mites = experiment: Short (5 minutes) exposure without drying time on consecutive days (FIG. 9); details: lavandulol diluted at 10^−6, 5 minutes exposure, no drying time; first day of treatment
# Protocol: FIG. 9 is a graph representing the attracting efficiency of a 5 minutes time exposure of a composition comprising lavandulol diluted at 10^−6. The graph represents the percentage of mites trapped by a fabric sprayed with compositions, as a function of the days of exposure to the attracting composition. Similar experiments were performed to determine attractiveness of mites when an attracting solution comprising one or more attractive agents is exposed during a short time without drying time.
# [5] = 10^−6 dilution (10 μL), 15 min, 1 hour or 24 hours
# [6] = pure solutions (0.18 μL and 0.5 μL), after 1 hour
# [7] = pure solutions (0.18 μL and 0.5 μL), after 24 hours
# [8] = Dilution 10^−6 (* mixture of a lavandulol solution at 10^−6 and a Tween 60 solution at 10^−6)
structure (smiles),measurement,setting,value
"C=C(C)C(CO)CC=C(C)C (stereo not shown) [Lavandulol, 5-Methyl-2-prop-1-en-2-ylhex-4-en-1-ol]",death of mites by contact,Tyrophagus putrescentiae; [5],doesn't cause death of mites
same,death of mites by contact,Tyrophagus putrescentiae; [6],lead to mites' death
same,death of mites by contact,Tyrophagus putrescentiae; [7],all mites being died
same,death of mites by contact,Acarus siro; [5],doesn't cause death of mites
same,mites died by contact,Acarus siro; [6],97%
same,death of mites by contact,Dermatophagoides farinae [1]; [5],doesn't cause death of mites
same,death of mites by contact,Dermatophagoides farinae [1]; [6],lead to mites' death
same,death of mites by contact,Dermatophagoides farinae [1]; [7],all mites being died
same,death of mites by contact,[2]; [5],doesn't cause death of mites
same,death of mites by contact,[2]; [6],lead to mites' death
same,death of mites by contact,[2]; [7],all mites being died
same,"attraction capabilities, percentage of mites",Dermatophagoides farinae [3]; Dilution 10^−3,57%
same,"attraction capabilities, percentage of mites",Dermatophagoides farinae [3]; Dilution 10^−5,90%
same,"attraction capabilities, percentage of mites",Dermatophagoides farinae [3]; [8],71%
same,"attraction capabilities, percentage of mites",Dermatophagoides farinae [3]; Dilution 10^−8,37%
same,"attraction capabilities, percentage of mites",Dermatophagoides farinae [3]; Dilution 10^−9,28%
same,"attraction capabilities, percentage of mites",Dermatophagoides farinae [3]; Dilution Undiluted,6%
same,"attraction capabilities, percentage of mites",[4]; Dilution 10^−1,34%
same,"attraction capabilities, percentage of mites",[4]; Dilution 10^−3,56%
same,"attraction capabilities, percentage of mites",[4]; Dilution 10^−5,91%
same,"attraction capabilities, percentage of mites",[4]; [8],64%
same,"attraction capabilities, percentage of mites",[4]; Dilution 10^−8,46%
same,"attraction capabilities, percentage of mites",[4]; Dilution 10^−9,55%
same,"attraction capabilities, percentage of mites",[4]; Dilution Undiluted,8%
same,percentage of mites attracted in the sheet,mites,very high
